Measured values from US20210048439A1, “CAGED AMINO ACIDS FOR CONTROLLED METABOLIC INCORPORATION AND METHODS OF USE” (University of Washington, priority 2018, published 2021).

How the values were obtained:
HeLa cells [1] = assay: Metabolic labeling of Met-depleted HeLa cells; Aha incorporation quantified by protein fluorescence (FAM-BCN, SDS-PAGE); format: cell-based
Protocol: Subsequent irradiation with UV light (λ=365 nm, 10 mW cm^−2, 5 min) yielded photoliberated Aha for metabolic incorporation. Two hours after light exposure, cells were lysed and their proteins were treated with a bicyclononyne-modified fluorescein (FAM-BCN, 100 nM, FIG. 2E) to introduce a fluorescent label by SPAAC. Protein fluorescence was then used to quantify the extent of Aha incorporation following protein separation by sodium dodecyl sulfate polyacrylamide gel electrophoresis (SDS-PAGE).
To control the extent of ncAA incorporation into newly synthesized proteins, NPPOC-Aha concentration was varied (0-250 μM) and the intensity of light irradiation (0-10 mW cm^−2) employed during photo-uncaging. […] To determine the potential effects of UV irradiation on metabolic incorporation, labeled protein fluorescence was compared for samples treated with Aha (50 μM)+/−light (10 mW cm^−2, 5 min) (FIG. 3D).
For in vitro work, borosilicate well plates (Mattek, P35G-1.5-14-C) were pretreated with high glucose Dulbecco's Modified Eagle Media (DMEM) supplemented with fetal bovine serum (FBS, 10%) and penicillin-streptomycin (PS, 1%). Plates were incubated at 37° C. for 10 minutes. HeLa cells were cultured on tissue culture polystyrene before seeding on borosilicate glass. After cells reached the desired confluency (50-60% for imaging; 80-90% for lysate analysis), cells were subjected to the following experiments.
Cells were rinsed with warm 1× Dulbecco's phosphate buffered saline (DPBS) and starved of methionine (Met) by the addition of Met-depleted media (1 h, 37° C.). Met-depleted media was prepared by adding L-cystine-2HCl (0.2 mM), L-glutamine (4 mM), and sodium pyruvate (1 mM) to depleted media (Fisher, 21013024). Media was removed and cells were treated with media containing NPPOC-Aha at the desired concentration (0-250 μM). Control media consisted of Aha or Met in the place of NPPOC-Aha. Cells were then irradiated with light (365 nm, 1-10 mW/cm2, 5 min). The cultures were then incubated (2 h, 37° C.) to promote Aha incorporation. The cells were then washed with 1×DPBS (37° C.).
Samples were prepared for sodium dodecyl sulfate polyacrylamide gel electrophoresis (SDS-PAGE) by lysing cells in lysis buffer (10 mM PO4, pH 7.0, 0.5% sodium dodecyl sulfate). Proteins were collected and immediately placed on ice. Free thiols were capped by the addition of iodoacetamide (10 mM, 30 min, room temperature). Azide-containing proteins were labeled by treatment with FAM-BCN (10 μM, 5 hours, room temperature). Excess FAM-BCN was removed by precipitating proteins with 4× sample volume of cold acetone (−20° C.). Lysates were incubated in acetone (1 h, −20° C.) and then subjected to centrifugation (14,000×g, 10 min). Proteins were redissolved in lysis buffer with gentle heating (40° C., 10 min), precipitated once more, and washed with 4× sample volume acetone before drying (20 min). Proteins were then dissolved in SDS-PAGE sample buffer (50 mM Tris-HC, 2% SDS, 10% glycerol, 12.5% β-mercaptoethanol, 0.025% bromophenol blue). Proteins were electrophoretically separated by a 12% polyacrylamide gel by applying a potential of 105 V. After electrophoresis, gels were scanned on a Typhoon FLA9000 fluorescent gel scanner before being stained with coomassie dye.

[2] = NPPOC-Aha photo-uncaging (photolysis) kinetics by HPLC; format: physicochemical
Description: For this system to be effective, the kinetics of NPPOC uncaging should be rapid, such that the liberation of free Aha is not rate limiting compared with the biological processes under study. To determine its photolysis kinetics, NPPOC-Aha (dissolved in H2O:CH3CN, 50:50) was irradiated with collimated UV light (λ=365 nm, 10 mW cm^−2, 0-600 s exposure). Degradation products were quantitatively analyzed by HPLC, with elution fractions compositionally identified by mass spectrometry.
To determine the kinetics of NPPOC-Aha uncaging upon UV light exposure, NPPOC-Aha (3.4 mM dissolved in 50:50 dH2O:CH3CN) was placed in quartz NMR tubes and irradiated with collimated UV light (365 nm, 10 mW/cm^2) emanating from an OmniCure (series 1500; light intensity measured with Cole-Palmer series 9811 radiometer). Time points were collected every 120 s for a total of 600 s. The resulting degradation products were separated by reverse-phase HPLC, eluting with a CH3CN/dH2O gradient ramping from 5% to 100% CH3CN over 55 minutes. Remaining NPPOC-Aha was identified by HRMS (ESI+). Calculated for C14H18N5O6 [M+1H]+, 352.1257; observed 352.1259 (Δ=0.5 ppm). The HPLC peak corresponding to starting material was integrated and monitored over time.

HeLa cells [3] = assay: Spatial labeling of phototagged cells in 3D tissue culture (PEG hydrogel, slitted photomask); format: cell-based; settings: cells in oxime-based PEG hydrogels (7 wt %), irradiated through slitted photomask
Description: Cells were encapsulated in oxime-based poly(ethylene glycol) hydrogels (7 wt %), treated with NPPOC-Aha and selectively irradiated through a slitted photomask. Cells were fixed and fluorescently labeled with FAM-BCN, phalloidin, and Hoechst. […] FAM fluorescence decreased exponentially away from exposed regions in a diffusion-predicted manner. Actin and DNA staining lack substantial patterning (FIG. 4).
HeLa cells were liberated from the tissue culture plate with trypsin, resuspended in FBS-supplemented DMEM, and pelleted by centrifugation. The cells were then gently resuspended in depleted media containing the photocaged Aha. Hydrogel precursors (10 k PEG functionalized with alkoxyamines or benzaldehyde) were combined (1:1 benzaldehyde:alkoxyamine stoichiometry) with cells prior to deposition on a glass-bottomed well plate (7 wt %, 10 mM aniline, 5 million cells/mL). After the gel had formed (30 min), it was inundated with depleted media containing […] (100 μM 30 min). Excess media was removed by aspiration and a subsection of the gel was irradiated with light (365 nm, 10 mW/cm2, 5 min) through a slitted photomask. Gels were washed with warm 1×DPBS (37° C., 15 min) before fixing with formaldehyde (4%, 1 hr, room temperature). Fixed cells were rinsed with 1×DPBS, and permeabilized with Triton™ X-100 (Sigma, 0.5%, 1 hr, room temperature). Cells were then washed (3×, 1 hr each) with 1×DPBS. […]

HeLa cells [4] = assay: Fluorescent labeling of phototagged fixed cells (confocal imaging); format: cell-based; settings: NPPOC-Aha 100 μM in the absence of light
Protocol: Building on the capability to fluorescently tag cellular lysates as well as isolate species of interest via laBONCAT, the technique's unique ability to label newly synthesized proteins in vitro with spatial control was investigated; this method could be applied to the isolation of proteins […] at user-specified times and locations from heterogeneous features in tissue culture, especially tissue slices. HeLa cells were treated with NPPOC-Aha (100 μM) and exposed to light (λ=365 nm, 10 mW cm^−2, 5 min). Two hours after exposure, cells were fixed, permeabilized, and treated with FAM-BCN (100 nM) to introduce a fluorescent label via SPAAC.
To fluorescently label Aha-tagged proteins for visualization, cells were rinsed with warm 1×DPBS (37° C.) before fixing with formaldehyde (4%, 10 min, room temperature). Fixed cells were rinsed with 1×DPBS, and permeabilized with Triton™ X-100 (Sigma, 0.5%, 2 min, room temperature). Cells were then washed (3×, 5 min each) with 1×DPBS. Azides were labeled by strain-promoted azide-alkyne cycloaddition (SPAAC) with FAM-BCN (100 nM, 30 min, room temperature) in the dark. Next, labeled cells were washed (3×, 5 min each) with 1×DPBS prior to imaging on a Leica SP8X laser scanning confocal microscope.

HeLa cells [5] = assay: NPPOC-Aha in vitro stability in media with HeLa cells; format: in vitro ADME
Protocol: To assess its in vitro stability, NPPOC-Aha (100 μM) was incubated in media with HeLa cells for 0-4 hr prior to light exposure (10 mW cm^−2, 5 min) and subsequent metabolic labeling (2 hr). […] Such stability is useful in sampling biological systems, as it decouples media swaps from proteome labeling, allowing researchers to standardize their experimental conditions.
The stability of NPPOC-Aha was conducted using the above protocols for cell culture and SDS-PAGE with minor modifications. Instead of irradiating samples immediately following addition of NPPOC-Aha media, NPPOC-Aha was incubated in the presence of cells for the desired time (0-4 hours) prior to light exposure. Met (3.33 μM) was added to all media, yielding a 30:1 ratio of NPPOC-Aha:Met5.

[6] = control media with Aha or Met in place of NPPOC-Aha

Row | Structure (SMILES) | effect of UV irradiation on protein labeling (HeLa cells [1]; Aha 50 μM +/− light (10 mW cm^−2, 5 min)) | protein fluorescence (extent of Aha incorporation) (HeLa cells [1]; [6]) | free Aha concentration above which normalized incorporation plateaus (HeLa cells [1]; incorporation normalized for expected liberated Aha predicted by the photokinetics) | Aha incorporation as function of NPPOC-Aha concentration (HeLa cells [1]; NPPOC-Aha 0-250 μM, given exposure condition) | protein fluorescence (extent of Aha incorporation) (HeLa cells [1]; NPPOC-Aha 250 μM, UV-treated (365 nm, 10 mW cm^−2, 5 min), lysis 2 h after exposure) | protein fluorescence (extent of Aha incorporation) (HeLa cells [1]; NPPOC-Aha 250 μM, non-irradiated) | dependence of protein labeling on mode of irradiation (HeLa cells [1]; NPPOC-Aha irradiated separately or during incubation with cells) | incorporation of irradiated NPPOC-Aha compared with Aha (HeLa cells [1]; each at 100 μM, NPPOC-Aha + light) | metabolic labeling as function of light intensity (HeLa cells [1]; low NPPOC-Aha concentrations, 0-10 mW cm^−2) | first-order decay constant for NPPOC photolysis ([2]; H2O:CH3CN 50:50, collimated UV λ=365 nm, 10 mW cm^−2, 0-600 s) [s⁻¹] | NPPOC cleaved ([2]; after 5 minutes of irradiation, 365 nm, 10 mW cm-2) [%] | cellular FAM signal pattern (patterned Aha incorporation) (HeLa cells [3]) | extent of fluorescent labeling of fixed cells (HeLa cells [4]) | Aha incorporation after pre-incubation, non-irradiated samples (HeLa cells [5]; 100 μM, 0-4 hr in media with HeLa cells, no light) | Aha incorporation after pre-incubation, irradiated samples (HeLa cells [5]; 100 μM, 0-4 hr in media with HeLa cells, then light) | working time (stability in media with cells) (HeLa cells [5]; NPPOC-Aha 100 μM incubated with HeLa cells 0-4 hr before light (10 mW cm^−2, 5 min), labeling 2 hr) [h]
1 | [N-]=[N+]=NCC[C@H](N)C(=O)O [Aha, L-Azidohomoalanine, reference compound] | no statistical difference | significant fluorescent enhancement | about 50 μM | – | – | – | – | – | – | – | – | – | – | – | – | –
2 | CSCC[C@H](N)C(=O)O [Met, L-methionine, reference compound] | – | lack of fluorescence | – | – | – | – | – | – | – | – | – | – | – | – | – | –
3 | CC(COC(=O)N[C@@H](CCN=[N+]=[N-])C(=O)O)c1ccccc1[N+](=O)[O-] (stereo partly drawn) [NPPOC-Aha, (2S)-4-azido-2-({[2-(2-nitrophenyl)propoxy]carbonyl}amino)butanoic Acid] | – | – | – | increased with NPPOC-Aha concentration | significant fluorescent enhancement | lack of fluorescence | does not depend on whether NPPOC-Aha is irradiated separately or during incubation with cells | slightly less incorporation than Aha alone | increased with light intensity | 0.0075 ± 0.0002 | 90 | localized near exposed regions | low-level labeling similar to Met | did not show increased incorporation over time | extent decreased over time | > 4
